Results reported in PMC3273469, “BACE1 Inhibition Induces a Specific Cerebrospinal Fluid β-Amyloid Pattern That Identifies Drug Effects in the Central Nervous System” (PLoS ONE, 2012).

Target: BACE1 (Homo sapiens, UniProt P56817)
Assay: Cellular Aβ[…] secretion ELISA (SH-SY5Y APP695wt cells); IP-MS Aβ pattern
Type: cell-based

Sequence of BACE1 (P56817 46-501): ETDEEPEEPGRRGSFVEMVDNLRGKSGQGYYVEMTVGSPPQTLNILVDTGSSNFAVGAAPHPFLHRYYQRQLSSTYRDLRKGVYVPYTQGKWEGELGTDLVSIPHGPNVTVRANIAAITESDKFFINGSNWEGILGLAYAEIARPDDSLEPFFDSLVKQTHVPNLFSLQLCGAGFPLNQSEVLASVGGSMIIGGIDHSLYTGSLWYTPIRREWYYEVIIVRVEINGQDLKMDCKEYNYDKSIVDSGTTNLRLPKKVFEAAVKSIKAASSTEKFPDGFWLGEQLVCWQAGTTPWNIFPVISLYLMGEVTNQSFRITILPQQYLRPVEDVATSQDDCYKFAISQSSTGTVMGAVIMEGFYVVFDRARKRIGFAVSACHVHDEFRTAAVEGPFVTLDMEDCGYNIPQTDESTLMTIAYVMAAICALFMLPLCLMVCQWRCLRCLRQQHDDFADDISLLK

IC50: 8.2 ± 1.4 nM
Substance: AZ-20
